Test results reported in the NIST ThermoML archive (doi:10.1016/j.jct.2014.03.001).
Numbers after ± are expanded uncertainties.

Columns and labels:
[1] = mn = molality of the nth substance listed, in mol/kg; settings: 84.51 kPa, Liquid; for speed of sound: Frequency=3 MHz, Sing-around technique in a fixed-path interferometer; for mass density: Vibrating tube method
[2] = 313.15 K; 84.51 kPa; Liquid; Frequency=3 MHz; Sing-around technique in a fixed-path interferometer

SMILES | speed of sound ([1]; 288.15 K, m1 = 0.035) [m/s] | mass density ([1]; 288.15 K, m1 = 0.035) [kg/m3] | speed of sound ([1]; 293.15 K, m1 = 0.035) [m/s] | mass density ([1]; 293.15 K, m1 = 0.035) [kg/m3] | speed of sound ([1]; 298.15 K, m1 = 0.035) [m/s] | mass density ([1]; 298.15 K, m1 = 0.035) [kg/m3] | speed of sound ([1]; 303.15 K, m1 = 0.035) [m/s] | mass density ([1]; 303.15 K, m1 = 0.035) [kg/m3] | speed of sound ([1]; 308.15 K, m1 = 0.035) [m/s] | mass density ([1]; 308.15 K, m1 = 0.035) [kg/m3] | speed of sound ([1]; 313.15 K, m1 = 0.035) [m/s] | mass density ([1]; 313.15 K, m1 = 0.035) [kg/m3] | speed of sound [2] [m/s] | speed of sound ([1]; 313.15 K, m2 = 0) [m/s]
O=C([O-])[O-].[Na+].[Na+] [sodium carbonate] + O | 1473.1 ± 1.4 | 1003.04 ± 0.17 | 1489.1 ± 1.4 | 1002.09 ± 0.17 | 1503 ± 1.4 | 1000.88 ± 0.17 | 1515.2 ± 1.4 | 999.439 ± 0.17 | 1525.7 ± 1.4 | 997.791 ± 0.17 | 1534.6 ± 1.4 | 995.95 ± 0.17 |  | 
C[N+](C)(C)C.[Cl-] [tetramethylammonium chloride] + O | 1470.2 ± 1.8 | 999.201 ± 0.42 | 1486.1 ± 1.9 | 998.29 ± 0.42 | 1500.1 ± 1.9 | 997.12 ± 0.42 | 1512.3 ± 1.9 | 995.716 ± 0.42 | 1522.8 ± 1.9 | 994.093 ± 0.42 | 1531.7 ± 1.9 | 992.272 ± 0.42 |  | 
O=[N+]([O-])[O-].[Na+] [sodium nitrate] + O | 1468.2 ± 1.5 | 1001.14 ± 0.2 | 1484.2 ± 1.5 | 1000.21 ± 0.2 | 1498.3 ± 1.5 | 999.017 ± 0.2 | 1510.5 ± 1.5 | 997.592 ± 0.2 | 1521.1 ± 1.5 | 995.954 ± 0.2 | 1530.1 ± 1.5 | 994.12 ± 0.2 |  | 
O [water] |  |  |  |  |  |  |  |  |  |  |  |  | 1529.2 ± 1.2 | 
O=C([O-])CC(O)(CC(=O)[O-])C(=O)[O-].[Na+].[Na+].[Na+] [trisodium citrate] + O | 1474.7 ± 1.6 | 1005.71 ± 0.26 | 1490.6 ± 1.6 | 1004.75 ± 0.26 | 1504.5 ± 1.6 | 1003.53 ± 0.26 | 1516.7 ± 1.6 | 1002.08 ± 0.26 | 1527.1 ± 1.6 | 1000.42 ± 0.26 | 1536 ± 1.6 | 998.572 ± 0.26 |  | 
[Cl][Fe]([Cl])[Cl] [ferric chloride] + O | 1470.9 ± 1.5 | 1003.96 ± 0.2 | 1486.8 ± 1.5 | 1003.05 ± 0.2 | 1500.8 ± 1.5 | 1001.87 ± 0.2 | 1513 ± 1.5 | 1000.46 ± 0.2 | 1523.5 ± 1.5 | 998.83 ± 0.2 | 1532.4 ± 1.5 | 997.003 ± 0.2 |  | 

Other lines, results leading:

speed of sound ([1]; 288.15 K, m1 = 0.035) [m/s] | mass density ([1]; 288.15 K, m1 = 0.035) [kg/m3] | speed of sound ([1]; 293.15 K, m1 = 0.035) [m/s] | mass density ([1]; 293.15 K, m1 = 0.035) [kg/m3] | speed of sound ([1]; 298.15 K, m1 = 0.035) [m/s] | mass density ([1]; 298.15 K, m1 = 0.035) [kg/m3] | speed of sound ([1]; 303.15 K, m1 = 0.035) [m/s] | mass density ([1]; 303.15 K, m1 = 0.035) [kg/m3] | speed of sound ([1]; 308.15 K, m1 = 0.035) [m/s] | mass density ([1]; 308.15 K, m1 = 0.035) [kg/m3] | speed of sound ([1]; 313.15 K, m1 = 0.035) [m/s] | mass density ([1]; 313.15 K, m1 = 0.035) [kg/m3] | speed of sound [2] [m/s] | speed of sound ([1]; 313.15 K, m2 = 0) [m/s] | SMILES
1471.1 ± 1.6 | 1002.4 ± 0.26 | 1487.1 ± 1.6 | 1001.48 ± 0.26 | 1501.3 ± 1.6 | 1000.31 ± 0.26 | 1513.5 ± 1.6 | 998.899 ± 0.26 | 1524 ± 1.6 | 997.276 ± 0.26 |  | 995.455 ± 0.26 |  |  | [Cl-].[Cl-].[Mg+2] [magnesium chloride] + O
1468.5 ± 1.5 | 1000.79 ± 0.2 | 1484.5 ± 1.5 | 999.873 ± 0.2 | 1498.7 ± 1.5 | 998.698 ± 0.2 | 1510.9 ± 1.5 | 997.288 ± 0.2 | 1521.5 ± 1.5 | 995.661 ± 0.2 | 1530.5 ± 1.5 | 993.836 ± 0.2 |  |  | [Cl-].[K+] [potassium chloride] + O
 |  |  |  |  |  |  |  |  |  |  |  |  | 1529.2 ± 1.2 | O [water] + CCCCCCCCCCCCn1cc[n+](C)c1.[Br-]
1468.2 ± 1.4 | 999.719 ± 0.17 | 1484.2 ± 1.4 | 998.814 ± 0.17 | 1498.4 ± 1.4 | 997.645 ± 0.17 | 1510.7 ± 1.4 | 996.243 ± 0.17 | 1521.3 ± 1.4 | 994.624 ± 0.18 | 1530.4 ± 1.4 | 992.807 ± 0.18 |  |  | Cl.N [ammonium chloride (NH4Cl)] + O
1472.6 ± 1.6 | 1003.68 ± 0.26 | 1488.6 ± 1.6 | 1002.73 ± 0.26 | 1502.6 ± 1.6 | 1001.52 ± 0.26 | 1514.8 ± 1.6 | 1000.09 ± 0.26 | 1525.3 ± 1.6 | 998.436 ± 0.26 | 1534.2 ± 1.6 | 996.589 ± 0.26 |  |  | O=S(=O)([O-])[O-].[Na+].[Na+] [sodium sulfate] + O
1468.8 ± 1.5 | 1000.55 ± 0.2 | 1484.9 ± 1.5 | 999.636 ± 0.2 |  | 998.457 ± 0.2 | 1511.3 ± 1.5 | 997.046 ± 0.2 | 1521.9 ± 1.5 | 995.419 ± 0.2 | 1530.9 ± 1.5 | 993.592 ± 0.2 |  |  | [Cl-].[Na+] [sodium chloride] + O
